Eleven compounds from PMC6958422 (Pharmaceuticals, 2019) can be followed below.

One series concerns the target T1, hA2B AR (Homo sapiens, UniProt P29275).
T1 construct: expressed in transfected cells; host or cells: CHO cells
T1 sequence (P29275 1-332): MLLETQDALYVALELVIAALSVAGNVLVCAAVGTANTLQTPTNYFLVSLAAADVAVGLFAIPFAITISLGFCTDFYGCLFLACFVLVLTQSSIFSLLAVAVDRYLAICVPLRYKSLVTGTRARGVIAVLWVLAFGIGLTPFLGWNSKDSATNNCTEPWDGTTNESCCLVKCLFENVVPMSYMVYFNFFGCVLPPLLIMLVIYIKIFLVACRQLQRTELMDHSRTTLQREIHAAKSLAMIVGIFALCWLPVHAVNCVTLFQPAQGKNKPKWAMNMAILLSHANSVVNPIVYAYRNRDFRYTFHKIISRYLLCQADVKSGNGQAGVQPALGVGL
Put plainly: cAMP assay, stimulation of cAMP production in hA2B CHO cells (agonism). Type of series: cell-based. The note with it: for Emax at 1 µM: CHO, compound at 1µM, in comparison with NECA (1µM = 100%), read-out: Efficacy hA2B (cAMP assays) (converted); for EC50: hA2B CHO cells, means ± SEM of four assays. The protocol:
The amino-3,5-dicyanopyridines 1–20 were tested for their affinity at hA1, hA2A, and hA3 ARs, stably transfected in Chinese Hamster Ovary (CHO) cells, and were also studied as hA2B agonists by evaluating their stimulatory effect on cAMP production in CHO cells, stably expressing the hA2B AR.
(§1) CHO cells transfected with hA1, hA2A, hA2B, and hA3 ARs were grown adherently and maintained in Dulbecco’s modified Eagle’s medium (Sigma-Aldrich, Milan, Italy) with nutrient mixture F12, containing 10% fetal calf serum, penicillin (100 U/mL), streptomycin (100 μg/mL), l-glutamine (2 mM) and geneticin (G418; 0.2 mg/mL) at 37°C in 5% CO2/95% air until the use in cAMP assays. For membrane preparation, the culture medium was removed, and the cells were washed with phosphate-buffered saline and scraped off T75 flasks in ice-cold hypotonic buffer (5 mM Tris HCl, 1 mM EDTA, pH 7.4). The cell suspension was homogenized with a Polytron, centrifuged for 30 min at 40000 g at 4°C, and the resulting membrane pellet was used for competition binding experiments.
CHO cells transfected with hAR subtypes were washed with phosphate-buffered saline, detached with trypsin and centrifuged for 10 min at 200 g. Cells were seeded in 96-well white half-area microplate (Perkin Elmer, Boston, USA) in a stimulation buffer composed of Hank Balanced Salt Solution (Sigma-Aldrich, Milan, Italy), 5 mM HEPES, 0.5 mM Ro 20-1724, and 0.1% BSA. cAMP levels were then quantified by using the AlphaScreen cAMP Detection Kit (Perkin Elmer) following the manufacturer’s instructions. At the end of the experiments, plates were read with the Perkin Elmer EnSight Multimode Plate Reader.

Another series has as its target T2, hA1 AR (Homo sapiens, UniProt P30542).
T2 construct: expressed in transfected cells; host or cells: CHO cells
T2 sequence (P30542 1-326): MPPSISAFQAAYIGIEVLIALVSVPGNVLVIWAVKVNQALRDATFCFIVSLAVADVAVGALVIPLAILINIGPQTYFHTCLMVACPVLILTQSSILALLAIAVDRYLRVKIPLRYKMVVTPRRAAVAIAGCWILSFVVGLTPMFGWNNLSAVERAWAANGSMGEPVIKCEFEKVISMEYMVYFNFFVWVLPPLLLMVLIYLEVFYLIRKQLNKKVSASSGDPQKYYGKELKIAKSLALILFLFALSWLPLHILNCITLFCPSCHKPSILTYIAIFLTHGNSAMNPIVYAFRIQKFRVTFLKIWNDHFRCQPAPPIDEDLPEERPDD
Put plainly: [3H]DPCPX competition binding to hA1 CHO cell membranes. Particulars: for I% hA1: percentage of inhibition at 1µM, [3H]DPCPX. The protocol: as §1
(§2) All synthesized compounds have been tested for their affinity to hA1, hA2A, and hA3 ARs. Competition experiments to hA1 ARs were carried out incubating 1 nM [^3H]-8-cyclopentyl-1,3-dipropylxanthine ([^3H]-DPCPX) with membrane suspension (50 μg of protein/100 μL) and different concentrations of the examined compounds at 25°C for 90 min in 50 mM Tris HCl, pH 7.4. […] Inhibition experiments to hA2A ARs were performed incubating the radioligand [^3H]-ZM241385 (4-(2-[7-Amino-2-(2-furyl)[1,2,4]triazolo[2,3-a][1,3,5]triazin-5-ylamino]ethyl)phenol) (1 nM) with the membrane suspension (50 μg of protein/100 μL) and different concentrations of the examined compounds for 60 min at 4°C in 50 mM Tris HCl (pH 7.4), 10 mM MgCl2. Non-specific binding was determined in the presence of ZM241385 (1 μM) and was about 20% of the total binding. Competition binding experiments to A3 ARs were carried out incubating the membrane suspension (50 μg of protein/100 μL) with 0.5 nM [^125I]-N^6-(4-aminobenzyl)-N-methylcarboxamidoadenosine ([^125I]-ABMECA) in the presence of different concentration of the examined compounds for an incubation time of 120 min at 4°C in 50 mM Tris HCl (pH 7.4), 10 mM MgCl2, and 1 mM EDTA. Non-specific binding was defined as binding in the presence of 1μM ABMECA and was always < 10% of the total binding. Bound and free radioactivity were separated by filtering the assay mixture through Whatman GF/B glass fiber filters using a Brandel cell harvester (Brandel Instruments, Unterföhring, Germany). The filter bound radioactivity was counted by Packard Tri Carb 2810 TR scintillation counter (Perkin Elmer, Boston, MA, USA).
(§3) The protein concentration was determined according to a Bio-Rad method with bovine albumin as a standard reference. Inhibitory binding constant (Ki) values were calculated from those of IC50 according to Cheng & Prusoff equation Ki = IC50/(1+[C*]/KD*), where [C*] is the concentration of the radioligand and KD* its dissociation constant. Ki and IC50 values were calculated by non-linear regression analysis using the equation for a sigmoid concentration-response curve (Graph-PAD Prism, San Diego, CA, USA).

In another series the target is T3, hA2A AR (Homo sapiens, UniProt P29274).
T3 construct: expressed in transfected cells; host or cells: CHO cells
Description: [3H]ZM241385 competition binding to hA2A CHO cell membranes. Particulars: for Ki: [3H]ZM241385, hA2A CHO cells, means ± SEM; for I% hA2A: percentage of inhibition at 1µM, [3H]ZM241385. The protocol:
as §1, §2, §3

The next series addresses T4, hA3 AR (Homo sapiens, UniProt P0DMS8).
T4 construct: expressed in transfected cells; host or cells: CHO cells
T4 sequence (P0DMS8 1-318): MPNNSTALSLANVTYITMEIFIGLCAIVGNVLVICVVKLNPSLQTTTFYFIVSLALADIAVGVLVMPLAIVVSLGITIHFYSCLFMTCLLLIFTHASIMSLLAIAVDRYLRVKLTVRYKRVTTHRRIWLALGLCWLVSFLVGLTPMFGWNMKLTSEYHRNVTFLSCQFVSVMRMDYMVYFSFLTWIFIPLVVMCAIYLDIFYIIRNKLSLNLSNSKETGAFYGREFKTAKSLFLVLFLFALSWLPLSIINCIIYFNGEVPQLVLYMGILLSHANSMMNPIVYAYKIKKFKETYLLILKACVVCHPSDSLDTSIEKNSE
Description: [125I]AB-MECA competition binding to hA3 CHO cell membranes. Particulars: for inhibition at 1 µM: percentage of inhibition at 1µM; for Ki: hA3 CHO cells, means ± SEM. The protocol: as §1, §2, §3

T3 sequence (P29274 whole entry): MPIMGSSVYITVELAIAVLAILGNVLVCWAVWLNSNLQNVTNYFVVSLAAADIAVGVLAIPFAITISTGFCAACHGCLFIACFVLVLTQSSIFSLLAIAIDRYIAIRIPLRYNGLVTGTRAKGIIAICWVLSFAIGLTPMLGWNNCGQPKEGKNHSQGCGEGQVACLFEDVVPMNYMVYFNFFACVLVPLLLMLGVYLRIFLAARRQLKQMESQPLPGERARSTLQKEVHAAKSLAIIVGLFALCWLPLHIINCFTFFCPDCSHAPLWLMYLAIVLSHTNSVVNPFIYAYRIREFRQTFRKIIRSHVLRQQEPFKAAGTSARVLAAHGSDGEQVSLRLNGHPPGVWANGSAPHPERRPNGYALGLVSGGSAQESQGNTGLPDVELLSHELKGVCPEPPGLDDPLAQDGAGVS

For the compound `N#Cc1c(N)nc(NCc2ncc[nH]2)c(C#N)c1-c1ccccc1` [Compound 14, 2-Amino-6-[(1H-imidazol-2-ylmethyl)amino]-4-phenylpyridine-3,5-dicarbonitrile], the melting point lay in the range of 208 to 210 °C. For the same compound, on hA2B AR, the Emax at 1 µM is 1% and the EC50 is greater than 1000 nM. On hA1 AR, the inhibition constant Ki came out at 140 ± 12 nM. Moreover, the Ki on hA2A AR turned out to be 115 ± 10 nM. The same compound gave an inhibition at 1 µM on hA3 AR of 19%.
In the case of `COc1ccc(-c2c(C#N)c(N)nc(NCCO)c2C#N)cc1` [Compound 19, 2-Amino-6-[(2-hydroxyethyl)amino]-4-(4-methoxyphenyl)pyridine-3,5-dicarbonitrile], the melting point lay within 248 to 250 °C. Besides, on hA2B AR, the Emax at 1 µM is 1% and the EC50 is greater than 1000 nM. For the same compound, the “I% hA1” value on hA1 AR is recorded as 14%. The “I% hA2A” value on hA2A AR was 2%. In addition, the inhibition at 1 µM at hA3 AR was 15%.
Take `N#Cc1c(N)nc(SCc2ncc[nH]2)c(C#N)c1-c1ccc(Cl)cc1` [Compound 7, 2-Amino-4-(4-chlorophenyl)-6-[(1H-imidazol-2-ylmethyl)sulfanyl]pyridine-3,5-dicarbonitrile]: the melting point is 229 to 231 °C (dec.). Also, at hA2B AR, the Emax at 1 µM was 32% and the response was half-maximal at 109 ± 12 nM (EC50). The compound further gave a Ki on hA1 AR of 30 ± 4 nM. Moreover, at hA2A AR, the Ki was 865 ± 68 nM. For the same compound, the Ki on hA3 AR was determined as 850 ± 62 nM.
In turn, `CC(=O)Nc1ccc(-c2c(C#N)c(N)nc(SCc3ncc[nH]3)c2C#N)cc1` [Compound 6, N-(4-{2-Amino-3,5-dicyano-6-[(1H-imidazol-2-ylmethyl)sulfanyl]pyridin-4-yl}phenyl) acetamide] came in with a melting point of 275 to 278 °C. In addition, at hA2B AR, the Emax at 1 µM was 100% and the EC50 came out at 12 ± 1 nM. Besides, the “Pharmacological profile at hA2BAR” value at hA2B AR (cAMP assay) is given as “full agonist profile”. Also, at hA1 AR, affinity was put at a Ki of 83 ± 7 nM. For the same compound, the Ki on hA2A AR worked out at 38 ± 3 nM. The compound also showed a Ki on hA3 AR of 48 ± 4 nM.
In turn, `CC(C)COc1ccc(-c2c(C#N)c(N)nc(SCc3ncc[nH]3)c2C#N)cc1` [Compound 2, 2-Amino-6-[(1H-imidazol-2-ylmethyl)sulfanyl]-4-[4-(2-methylpropoxy)phenyl]pyridine-3,5-dicarbonitrile] had a melting point of 230 to 232 °C. Besides, on hA2B AR, the Emax at 1 µM was 36% and the EC50 amounted to 227 ± 21 nM. The “I% hA1” value on hA1 AR amounted to 26%. Also, the “I% hA2A” value at hA2A AR was determined as 1%. On hA3 AR, this compound registered an inhibition at 1 µM of 1%.
For the compound `N#Cc1c(N)nc(-n2ccnc2)c(C#N)c1-c1ccccc1` [Compound 17, 2-Amino-6-(1H-imidazol-1-yl)-4-phenylpyridine-3,5-dicarbonitrile], the melting point is 253 to 255 °C. Moreover, on hA2B AR, the Emax at 1 µM was 1% and the EC50 was greater than 1000 nM. Also, on hA1 AR, the “I% hA1” value is given as 27%. Also, the “I% hA2A” value at hA2A AR came out at 1%. On hA3 AR, this compound returned an inhibition at 1 µM of 25%.
Consider `Cc1ccc(-c2c(C#N)c(N)nc(SCc3ncc[nH]3)c2C#N)cc1` [Compound 10, 2-[(1H-Imidazol-2-il)metiltio]-6-ammino-4(4-metilfenil)piridina-3,5-dicarbonitrile], for which the melting point was 259 to 261 °C (dec.). Moreover, at hA2B AR, the Emax at 1 µM is 78% and the EC50 was 78 ± 6 nM. Also, affinity at hA1 AR was put at a Ki of 5.32 ± 0.42 nM. This compound also yielded a Ki at hA2A AR of 47 ± 4 nM. At hA3 AR, the Ki stood at 212 ± 19 nM.
`N#Cc1cnc(N)c(C#N)c1-c1ccccc1` [Compound 18, 2-amino-4-phenylpyridine-3,5-dicarbonitrile] returned a melting point of 244 to 246 °C. Further, at hA2B AR, the Emax at 1 µM was 1% and the EC50 is greater than 1000 nM. Besides, the “I% hA1” value on hA1 AR is 15%. Moreover, the “I% hA2A” value at hA2A AR came to 16%. Also, the inhibition at 1 µM on hA3 AR amounted to 5%.
For `COc1ccc(CCNc2nc(N)c(C#N)c(-c3ccccc3)c2C#N)cc1` [Compound 16, 2-Amino-6-{[2-(4-methoxyphenyl)ethyl]amino}-4-phenylpyridine-3,5-dicarbonitrile], on hA2B AR, the Emax at 1 µM was 1% and the EC50 is greater than 1000 nM. In addition, at hA1 AR, the “I% hA1” value amounted to 1%. In addition, the “I% hA2A” value on hA2A AR is 1%. The same compound showed an inhibition at 1 µM at hA3 AR of 1%.
In the case of `COC(=O)CSc1nc(N)c(C#N)c(-c2ccc(OC)cc2)c1C#N` [Compound 20, Methyl{[6-amino-3,5-dicyano-4-(4-methoxyphenyl)pyridin-2-yl]sulfanyl}acetate], the melting point was 218 to 220 °C. For the same compound, at hA2B AR, the Emax at 1 µM was 1% and the EC50 was greater than 1000 nM. This compound had a Ki on hA1 AR of 987 ± 81 nM. Moreover, the “I% hA2A” value on hA2A AR is recorded as 1%. This compound gave an inhibition at 1 µM at hA3 AR of 5%.
`N#Cc1c(N)nc(SCc2ncc[nH]2)c(C#N)c1-c1ccc(C(F)(F)F)cc1` [Compound 9, 2-Amino-6-[(1H-imidazol-2-ylmethyl)sulfanyl]-4-[4-(trifluoromethyl)phenyl]pyridine-3,5-dicarbonitrile]: the melting point was 233 to 235 °C (dec.). Moreover, at hA2B AR, the Emax at 1 µM was 4% and the EC50 is greater than 1000 nM. Besides, the Ki at hA1 AR is 419 ± 32 nM. The “I% hA2A” value at hA2A AR is recorded as 32%. Besides, the inhibition at 1 µM on hA3 AR came out at 21%.
